PubChem BioAssay AID1919009 (Molecular Pharmacology Branch, DTP, NCI, 2023)

Tested on: K24384-001-R-PDC complex spheroid growth
Test: Anticancer human tumor K24384-001-R-PDC patient-derived pancreatic adenocarcinoma cell line growth inhibition [AhR]
Details: for IC50: curve of first compound; for viability, T/C: stronger effect = lower value
Excerpt: Multicellular complex tumor spheroid response to aryl hydrocarbon receptor antagonists in combination with a variety of drugs and investigational agents in selected tumor cell lines
The current study was undertaken to assess response to aryl hydrocarbon receptor antagonists in combination with standard-of-care drugs and investigational agents in solid tumor complex spheroid models. Complex spheroids include a stromal component modeled by human endothelial cells (HUVEC) and fibroblasts modeled by human mesenchymal stem cells (MSCs). The concentration ranges selected for each drug and investigational agent were based upon clinically achievable concentrations if the clinical Cmax of the agent was known.
Compounds. The drugs and investigational agents: BAY 2416964 (NSC825713), GNF351 (NSC835774), CH-223191 (NSC835775), CPI-455 (NSC825282), aza-TdCyd (NSC777586), decitabine (NSC127716), belinostat (NSC758774), entinostat (NSC756642), pevonedistat (NSC761192), tazemetostat (NSC777109), talazoparib (NSC765396), olaparib (NSC753686), selinexor (NSC780203), nedisertib (M3814, NSC802822), bortezomib (NSC756655), venetoclax (NSC766270), doxorubicin (NSC123127), elimusertib (BAY189344, NSC800525), ceralasertib (AZD6738, NSC777638), TAK-243 (NSC785004), alisertib (NSC759677), etoposide (NSC141540), topotecan (NSC609699), eribulin (NSC707389), gemcitabine (NSC613327), carboplatin (NSC241240), cisplatin (NSC119875), and SN-38 (NSC673596) were obtained from the National Cancer Institute (NCI) Developmental Therapeutics Program Chemical Repository (32). The FDA-approved anticancer drug set is available from the Developmental Therapeutics Program at https://dtp.cancer.gov/organization/dscb/obtaining/available plates.htm. […] The stock solutions were prepared in dimethyl sulfoxide (DMSO, Sigma-Aldrich, St. Louis, MO, cat. D2650), except for the platinum compounds which were prepared in saline (Quality Biological, Gaithersburg, MD, cat. 114-055-101), at 800-fold the tested concentration and stored at -70 degrees C prior to their use. All drugs and investigational agents were tested over a range starting from a high concentration at or near the clinical Cmax and decreasing in half-log increments. If the clinical Cmax for an agent had not been determined, the highest concentration tested was 10 microM (Table 1).
Cell Culture. All cells were maintained in an incubator at 37 degrees C and 5% CO2 with 95% humidity. The PDC lines were cultured according to standard operating procedures established by the NCI PDMR (https://pdmr.cancer.gov). Briefly, all PDCs were thawed and cultured in Matrigel-coated flasks prepared with a working solution of 1X Ham's F-12 nutrient mix, without supplementation (Invitrogen, Waltham, MA, cat. 11765054), 100 U/mL penicillin-streptomycin (Invitrogen, cat. 15140122), and 2.5% Matrigel (Corning Inc., Corning, NY, cat. 354248) for the first three passages. All PDCs were cultured in complete DMEM/F-12 media containing advanced DMEM/F-12 (Invitrogen, cat. 12634028), 4.9% defined fetal bovine serum, heat inactivated (HyClone Laboratories Inc., Logan, UT, cat. SH30070.03HI), 389 ng/mL hydrocortisone (Sigma-Aldrich, cat. H4001), 9.7 ng/mL human EGF recombinant protein (Invitrogen, cat. PHG0313), 23.4 microg/mL adenine (Sigma-Aldrich, cat. A2786), 97.3 U/mL penicillin-streptomycin (Invitrogen, cat. 15140122), 1.9 mM L-glutamine (Invitrogen, cat. 25030081), and 9.7 microM Y-27632 dihydrochloride (Tocris Bioscience, Bristol, United Kingdom, cat. 1254). The PDCs were cultured in complete DMEM/F12 media without 10 microM Y-27632 dihydrochloride for at least two passages prior to the screen. The established cell lines NCI-H1341 and […] were cultured in DMEM/F-12, HEPES (Invitrogen, cat. 11330032), 5% defined fetal bovine serum (HyClone Laboratories Inc., cat. SH30070.03), ITS premix universal culture supplement [insulin (5 microg/mL), transferrin (5 microg/mL), and selenious acid (5 ng/mL)] […]

[1] = second compound 0.1 µM, first compound 0.00316 µM
[2] = second compound 0.1 µM, first compound 0.01 µM
[3] = second compound 0.1 µM, first compound 0.0316 µM
[4] = second compound 0.1 µM, first compound 0.1 µM
[5] = second compound 0.316 µM, first compound 0.00316 µM
[6] = second compound 0.316 µM, first compound 0.01 µM
[7] = second compound 0.316 µM, first compound 0.0316 µM
[8] = second compound 0.316 µM, first compound 0.1 µM
[9] = second compound 1 µM, first compound 0.00316 µM
[10] = second compound 1 µM, first compound 0.01 µM
[11] = second compound 1 µM, first compound 0.0316 µM
[12] = second compound 1 µM, first compound 0.1 µM
[13] = second compound 3.16 µM, first compound 0.00316 µM
[14] = second compound 3.16 µM, first compound 0.01 µM
[15] = second compound 3.16 µM, first compound 0.0316 µM
[16] = second compound 3.16 µM, first compound 0.1 µM
[17] = second compound 10 µM, first compound 0.00316 µM
[18] = second compound 10 µM, first compound 0.01 µM
[19] = second compound 10 µM, first compound 0.0316 µM
[20] = second compound 10 µM, first compound 0.1 µM
[21] = second compound 0.1 µM, first compound 0.316 µM
[22] = second compound 0.1 µM, first compound 1 µM
[23] = second compound 0.1 µM, first compound 3.16 µM
[24] = second compound 0.1 µM, first compound 10 µM
[25] = second compound 0.316 µM, first compound 0.316 µM
[26] = second compound 0.316 µM, first compound 1 µM
[27] = second compound 0.316 µM, first compound 3.16 µM
[28] = second compound 0.316 µM, first compound 10 µM
[29] = second compound 1 µM, first compound 0.316 µM
[30] = second compound 1 µM, first compound 1 µM
[31] = second compound 1 µM, first compound 3.16 µM
[32] = second compound 1 µM, first compound 10 µM
[33] = second compound 3.16 µM, first compound 0.316 µM
[34] = second compound 3.16 µM, first compound 1 µM
[35] = second compound 3.16 µM, first compound 3.16 µM
[36] = second compound 3.16 µM, first compound 10 µM
[37] = second compound 10 µM, first compound 0.316 µM
[38] = second compound 10 µM, first compound 1 µM
[39] = second compound 10 µM, first compound 3.16 µM
[40] = second compound 10 µM, first compound 10 µM
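Throughout, for viability, T/C: percent of DMSO vehicle-treated spheroid viability set as 100%.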

| IC50 (second compound 0.1 µM) [nM] | IC50 (second compound 0.316 µM) [nM] | IC50 (second compound 1 µM) [nM] | IC50 (second compound 3.16 µM) [nM] | IC50 (second compound 10 µM) [nM] | SMILES | viability, T/C [3] [%] | viability, T/C [4] [%] | viability, T/C [7] [%] | viability, T/C [8] [%] | viability, T/C [11] [%] | viability, T/C [12] [%] | viability, T/C [15] [%] | viability, T/C [16] [%] | viability, T/C [19] [%] | viability, T/C [20] [%] | viability, T/C [21] [%] | viability, T/C [22] [%] | viability, T/C [25] [%] | viability, T/C [26] [%] | viability, T/C [29] [%] | further results |
| --- | --- | --- | --- | --- | --- | --- | --- | --- | --- | --- | --- | --- | --- | --- | --- | --- | --- | --- | --- | --- | --- |
| 76.3 | 47.9 | 31.7 | 42 | > 100 | CC[C@@]1(O)C(=O)OCc2c1cc1n(c2=O)Cc2cc3c(CN(C)C)c(O)ccc3nc2-1 + CC(CO)NC(=O)c1cc(-c2ccc(Cl)cc2)nn(-c2cnn(C)c2)c1=O | 64 | 45.7 | 54.7 | 42.2 | 57.3 | 39.8 | 53.5 | 39.1 | 52 | 49.8 | – | – | – | – | – | viability, T/C (second compound 0.1 µM, first compound 0.000316 µM): 103%; viability, T/C (second compound 0.1 µM, first compound 0.001 µM): 101%; viability, T/C [1]: 100%; viability, T/C [2]: 87.7%; viability, T/C (second compound 0.316 µM, first compound 0.000316 µM): 93.4%; viability, T/C (second compound 0.316 µM, first compound 0.001 µM): 111%; viability, T/C [5]: 99%; viability, T/C [6]: 84.2%; viability, T/C (second compound 1 µM, first compound 0.000316 µM): 94.2%; viability, T/C (second compound 1 µM, first compound 0.001 µM): 120%; viability, T/C [9]: 104%; viability, T/C [10]: 71.2%; viability, T/C (second compound 3.16 µM, first compound 0.000316 µM): 114%; viability, T/C (second compound 3.16 µM, first compound 0.001 µM): 103%; viability, T/C [13]: 90.9%; viability, T/C [14]: 71.8%; viability, T/C (second compound 10 µM, first compound 0.000316 µM): 87.6%; viability, T/C (second compound 10 µM, first compound 0.001 µM): 81.9%; viability, T/C [17]: 100%; viability, T/C [18]: 67.3% |
| 1710 | 921 | 1170 | 764 | 611 | COc1cc(C2c3cc4c(cc3C(OC3OC5COC(C)OC5C(O)C3O)C3COC(=O)C23)OCO4)cc(OC)c1O (stereo not given) + CC(CO)NC(=O)c1cc(-c2ccc(Cl)cc2)nn(-c2cnn(C)c2)c1=O | 96.8 | 102 | 89.5 | 93.4 | 95.9 | 96.4 | 74.6 | 82.4 | 70.8 | 72.9 | 75.9 | 60.8 | 78.1 | 48.4 | 78.1 | viability, T/C [23]: 39.8%; viability, T/C [24]: 33.5%; viability, T/C [27]: 30%; viability, T/C [28]: 28.5%; viability, T/C [30]: 52.7%; viability, T/C [31]: 36%; viability, T/C [32]: 30.8%; viability, T/C [33]: 80.4%; viability, T/C [34]: 41.2%; viability, T/C [35]: 33.4%; viability, T/C [36]: 29.6%; viability, T/C [37]: 57.2%; viability, T/C [38]: 44.7%; viability, T/C [39]: 34.1%; viability, T/C [40]: 33.7% |
| 78 | 83.2 | 71.2 | 67.7 | 52.4 | COc1cccc2c1C(=O)c1c(O)c3c(c(O)c1C2=O)CC(O)(C(=O)CO)CC3OC1CC(N)C(O)C(C)O1 (stereo not given) + CC(CO)NC(=O)c1cc(-c2ccc(Cl)cc2)nn(-c2cnn(C)c2)c1=O | 60.8 | 45.7 | 62 | 46.9 | 64.4 | 43 | 58.1 | 44.5 | 52.8 | 46.4 | 26.5 | 8.5 | 22.6 | 5.23 | 22.3 | viability, T/C [23]: 2.41%; viability, T/C [24]: 9.56%; viability, T/C [27]: 3.01%; viability, T/C [28]: 8.52%; viability, T/C [30]: 5.55%; viability, T/C [31]: 2.67%; viability, T/C [32]: 9.64%; viability, T/C [33]: 24.4%; viability, T/C [34]: 4.46%; viability, T/C [35]: 3.77%; viability, T/C [36]: 8.98%; viability, T/C [37]: 17.9%; viability, T/C [38]: 2.07%; viability, T/C [39]: 3.16%; viability, T/C [40]: 10.2% |
| > 1000 | > 1000 | > 1000 | > 1000 | > 1000 | Nc1ncn(C2CC(O)C(CO)O2)c(=O)n1 (stereo not given) + CC(CO)NC(=O)c1cc(-c2ccc(Cl)cc2)nn(-c2cnn(C)c2)c1=O | 109 | 65.8 | 109 | 76.2 | 112 | 95.8 | 81.3 | 67.9 | 79.3 | 67.1 | 87.7 | 67.5 | 69.9 | 63.8 | 75.4 | viability, T/C [1]: 110%; viability, T/C [2]: 116%; viability, T/C [5]: 105%; viability, T/C [6]: 111%; viability, T/C [9]: 98.2%; viability, T/C [10]: 93.4%; viability, T/C [30]: 62.8%; viability, T/C [13]: 74.3%; viability, T/C [14]: 102%; viability, T/C [33]: 59.2%; viability, T/C [34]: 57.3%; viability, T/C [17]: 80.4%; viability, T/C [18]: 83.1%; viability, T/C [37]: 58.2%; viability, T/C [38]: 63.2% |
